Results reported in PMC12811658, “Design, Synthesis, and Structural Evolution of Pseudo‐Natural Product IDO1 Inhibitors and Degraders” (Angewandte Chemie (International Ed. in English), 2025).

Experiments:
[1] = test system: Kyn levels in BxPC3 cells (kynurenine generated by IDO1); test: Cellular Kyn assay (automated Kyn screening assay); format: cell-based; conditions: for IC50: Homo sapiens, BXPC-3, 48 h, IFN-γ, L-Trp and compounds 48 h, mean ± SD, read-out: IC50 (Kyn assay), reduction of kynurenine levels
[2] = biological target: IDO1 protein levels in BxPC3 cells (Homo sapiens, UniProt P14902); test: IDO1 immunoblotting (degradation); format: cell-based; design: endogenous in cells; host or cells: BxPC3 (DSMZ), IFN-γ stimulated; conditions: for Max. degradation (%): 24 h incubation, mean ± SD
recombinant human IDO1 = biological target: T1, recombinant human IDO1 (Homo sapiens, UniProt P14902); test: IDO1 enzymatic assay in vitro; format: biochemical; conditions: for inhibition at 14 µM / IC50 / IDO1 activity IC50 [µM] (in vitro assay): pre-incubation 37 °C 45 min; for inhibition at 14 µM: mean ± SD; for IC50 / IDO1 activity IC50 [µM] (in vitro assay): determined if inhibition at 14 µM higher than 50%; for in vitro IDO1 inhibition (in words): up to 14 µM, incubated with IDO1 for 45 min
T1 construct: The GST-tag of IDO1 was removed to obtain untagged full-length IDO1l using PreScission protease; GST (N, cleaved yes); made in house; own inference
T1 sequence (P14902 whole entry): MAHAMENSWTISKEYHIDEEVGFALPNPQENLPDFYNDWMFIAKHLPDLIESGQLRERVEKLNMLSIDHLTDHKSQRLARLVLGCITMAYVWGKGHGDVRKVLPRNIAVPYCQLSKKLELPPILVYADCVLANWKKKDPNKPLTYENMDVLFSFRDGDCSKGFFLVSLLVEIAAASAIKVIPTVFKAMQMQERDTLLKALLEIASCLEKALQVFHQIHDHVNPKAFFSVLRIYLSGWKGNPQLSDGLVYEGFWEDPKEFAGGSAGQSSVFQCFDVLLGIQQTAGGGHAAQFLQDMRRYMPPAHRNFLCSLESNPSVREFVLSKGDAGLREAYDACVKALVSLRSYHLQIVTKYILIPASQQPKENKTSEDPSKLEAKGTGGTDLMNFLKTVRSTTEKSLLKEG

IDO1 protein levels in BxPC3 cells, sequence (P14902 whole entry): as above

IC50 [1]	Max. degradation (%) ([2]; 10 nM)	Max. degradation (%) ([2]; 100 nM)	inhibition at 14 µM (recombinant human IDO1)	IC50 (recombinant human IDO1)	in vitro IDO1 inhibition (in words) (recombinant human IDO1)	Degradation Efficiency (%) ([2]; 100 nM, BxPC3 cells, heatmap Fig. 3d)	Dmax at 0.1 µM ([2]; BXPC-3, @100 nM, BxPC3 cells)	Structure (SMILES)	fold increase in potency compared to iDeg-2 in Kyn assay [1]	IDO1 activity IC50 [µM] (in vitro assay) (recombinant human IDO1)
13 ± 3 nM	25 ± 10 (3) %	56 ± 4 (3) %	35 ± 8%	> 14 µM	weak inhibitors			CCc1cc(C(C)(C)C)ccc1S(=O)(=O)N1C[C@H]2C[C@H]3C[C@H](C3(C)C)[C@@]2(COC(=O)Nc2ccc(I)cc2)C1 [compound 80, ((3aS,4R,6R,7aS)-2-((4-(tert-butyl)-2-ethylphenyl)sulfonyl)-5,5-dimethyloctahydro-3aH-4,6-methanoisoindol-3a-yl)methyl (4-iodophenyl)carbamate]		
19 ± 6 nM	31 ± 18 (3) %	55 ± 4 (3) %	39 ± 1%	> 14 µM	weak inhibitors			CC(C)(C)c1ccc(S(=O)(=O)N2C[C@H]3C[C@H]4C[C@H](C4(C)C)[C@@]3(COC(=O)Nc3ccc(I)cc3)C2)c(C2CC2)c1 [compound 81, ((3aS,4R,6R,7aS)-2-((4-(tert-butyl)-2-cyclopropylphenyl)sulfonyl)-5,5-dimethyloctahydro-3aH-4,6-methanoisoindol-3a-yl)methyl (4-iodophenyl)carbamate]		
46 ± 21 nM	29 ± 16 (5) %	62 ± 10 (5) %	< 25%			62%		C#Cc1ccc(NC(=O)OC[C@]23CN(S(=O)(=O)c4ccc(C(C)(C)C)cc4)C[C@H]2C[C@H]2C[C@@H]3C2(C)C)cc1 [43 (iDeg-3), ((3aS,4R,6R,7aS)-2-((4-(tert-butyl)phenyl)sulfonyl)-5,5-dimethyloctahydro-3aH-4,6-methanoisoindol-3a-yl)methyl (4-ethynylphenyl)carbamate]	three‐fold	– (Inactive: >75% Kyn level observed up to a concentration of 14 µM and no IC50 value obtained)
46 ± 15 nM	14 ± 15 (5) %	59 ± 16 (5) %	< 25%					COc1cc(C(C)(C)C)ccc1S(=O)(=O)N1C[C@H]2C[C@H]3C[C@H](C3(C)C)[C@@]2(COC(=O)Nc2ccc(I)cc2)C1 [compound 82, ((3aS,4R,6R,7aS)-2-((4-(tert-butyl)-2-methoxyphenyl)sulfonyl)-5,5-dimethyloctahydro-3aH-4,6-methanoisoindol-3a-yl)methyl (4-iodophenyl)carbamate]		– (Inactive: >75% Kyn level observed up to a concentration of 14 µM and no IC50 value obtained)
10 ± 4 nM	61 ± 2 (3) %	71 ± 11 (3) %	39 ± 7%	> 14 µM				C#Cc1ccc(NC(=O)OC[C@]23CN(S(=O)(=O)c4ccc(C(C)(C)C)cc4C4CC4)C[C@H]2C[C@H]2C[C@@H]3C2(C)C)cc1 [compound 100, ((3aS,4R,6R,7aS)-2-((4-(tert-butyl)-2-cyclopropylphenyl)sulfonyl)-5,5-dimethyloctahydro-3aH-4,6-methanoisoindol-3a-yl)methyl (4-ethynylphenyl)carbamate]		
32 ± 7 nM	27 ± 5 (3) %	36 ± 2 (3) %	59 ± 2%	1.9 ± 0.5 µM			36 to 54%	CC(C)(CC(=O)O)c1ccc(S(=O)(=O)N2C[C@H]3C[C@H]4C[C@H](C4(C)C)[C@@]3(COC(=O)Nc3ccc(I)cc3)C2)cc1 [compound 91, 3-(4-(((3aS,4R,6R,7aS)-3a-((((4-iodophenyl)carbamoyl)oxy)methyl)-5,5-dimethyloctahydro-2H-4,6-methanoisoindol-2-yl)sulfonyl)phenyl)-3-methylbutanoic acid]		
43 ± 24 nM			< 25%					COC(=O)C(C)(C)c1ccc(S(=O)(=O)N2C[C@H]3C[C@H]4C[C@H](C4(C)C)[C@@]3(COC(=O)Nc3ccc(I)cc3)C2)c(Cl)c1 [compound 94, Methyl 2-(3-chloro-4-(((3aS,4R,6R,7aS)-3a-((((4-iodophenyl)carbamoyl)oxy)methyl)-5,5-dimethyloctahydro-2H-4,6-methanoisoindol-2-yl)sulfonyl)phenyl)-2-methylpropanoate]		– (Inactive: >75% Kyn level observed up to a concentration of 14 µM and no IC50 value obtained)
5 ± 1 nM	11 ± 24 (3) %	18 ± 19 (3) %	65 ± 4%	0.11 ± 0.02 µM				Cc1cc(C(C)(C)C(=O)O)ccc1S(=O)(=O)N1C[C@H]2C[C@H]3C[C@H](C3(C)C)[C@@]2(COC(=O)Nc2ccc(I)cc2)C1 [compound 97, 2-(4-(((3aS,4R,6R,7aS)-3a-((((4-iodophenyl)carbamoyl)oxy)methyl)-5,5-dimethyloctahydro-2H-4,6-methanoisoindol-2-yl)sulfonyl)-3-methylphenyl)-2-methylpropanoic acid]		
73 ± 41 nM			< 25%					COC(=O)C(C)(C)c1ccc(S(=O)(=O)N2C[C@H]3C[C@H]4C[C@H](C4(C)C)[C@@]3(COC(=O)Nc3ccc(I)cc3)C2)c(OC)c1 [compound 93, Methyl 2-(4-(((3aS,4R,6R,7aS)-3a-((((4-iodophenyl)carbamoyl)oxy)methyl)-5,5-dimethyloctahydro-2H-4,6-methanoisoindol-2-yl)sulfonyl)-3-methoxyphenyl)-2-methylpropanoate]		– (Inactive: >75% Kyn level observed up to a concentration of 14 µM and no IC50 value obtained)
42 ± 15 nM	inactive	55 ± 5 (3) %	16 ± 4%					CC(C)(C)c1ccc(S(=O)(=O)N2C[C@H]3C[C@H]4C[C@H](C4(C)C)[C@@]3(COC(=O)Nc3ccc(I)cc3)C2)c(I)c1 [compound 84, ((3aS,4R,6R,7aS)-2-((4-(tert-butyl)-2-iodophenyl)sulfonyl)-5,5-dimethyloctahydro-3aH-4,6-methanoisoindol-3a-yl)methyl (4-iodophenyl)carbamate]		– (Inactive: >75% Kyn level observed up to a concentration of 14 µM and no IC50 value obtained)
35 ± 6 nM	24 ± 15 (3) %	56 ± 4 (3) %	< 25%					CC(C)(C)c1ccc(S(=O)(=O)N2C[C@H]3C[C@H]4C[C@H](C4(C)C)[C@@]3(COC(=O)Nc3ccc(I)cc3)C2)c(Br)c1 [compound 83, ((3aS,4R,6R,7aS)-2-((2-bromo-4-(tert-butyl)phenyl)sulfonyl)-5,5-dimethyloctahydro-3aH-4,6-methanoisoindol-3a-yl)methyl (4-iodophenyl)carbamate]		– (Inactive: >75% Kyn level observed up to a concentration of 14 µM and no IC50 value obtained)
25 ± 5 nM	31 ± 6 (3) %	65 ± 10 (14) %	25 ± 5%	> 14 µM	weak inhibitors			Cc1cc(C(C)(C)C)ccc1S(=O)(=O)N1C[C@H]2C[C@H]3C[C@H](C3(C)C)[C@@]2(COC(=O)Nc2ccc(I)cc2)C1 [79 (iDeg-4), ((3aS,4R,6R,7aS)-2-((4-(tert-butyl)-2-methylphenyl)sulfonyl)-5,5-dimethyloctahydro-3aH-4,6-methanoisoindol-3a-yl)methyl (4-iodophenyl)carbamate]		
